# Biological target: ROCK2 (Homo sapiens, UniProt O75116)
# Assay: ROCK assay: phosphorylation of FITC peptide substrate, LABCHIP 3000 mobility shift
# Format: biochemical
# Details: 5 μM ATP, 1.5 μM peptide substrate; read-out: ROCK2 Activity (ROCK IC50 range)
# Procedure: The effectiveness of compounds of the present invention as ROCK inhibitors can be determined in a 30 μL assay containing 20 mM HEPES, pH 7.5, 20 mM MgCl2, 0.015% Brij-35, 4 mM DTT, 5 μM ATP and 1.5 μM peptide substrate (FITC-AHA-AKRRRLSSLRA-OH). Compounds were dissolved in DMSO so that the final concentration of DMSO was <2%, and the reaction was initiated with Rho kinase variants. After incubation, the reaction was terminated by the addition of EDTA and the phosphorylated and non-phosphorylated peptides separated using a LABCHIP® 3000 Reader (Caliper Life Sciences). […] Compounds were tested in dose-response format, and the inhibition of kinase activity was calculated at each concentration of compound. The inhibition data were fit using a curve-fitting program to determine the IC50; i.e., the concentration of compound required to inhibit 50% of kinase activity.
# Representative Examples were tested in the ROCK assay described above and found having ROCK inhibitory activity.
# Sequence of ROCK2 (O75116 whole entry, species assumed): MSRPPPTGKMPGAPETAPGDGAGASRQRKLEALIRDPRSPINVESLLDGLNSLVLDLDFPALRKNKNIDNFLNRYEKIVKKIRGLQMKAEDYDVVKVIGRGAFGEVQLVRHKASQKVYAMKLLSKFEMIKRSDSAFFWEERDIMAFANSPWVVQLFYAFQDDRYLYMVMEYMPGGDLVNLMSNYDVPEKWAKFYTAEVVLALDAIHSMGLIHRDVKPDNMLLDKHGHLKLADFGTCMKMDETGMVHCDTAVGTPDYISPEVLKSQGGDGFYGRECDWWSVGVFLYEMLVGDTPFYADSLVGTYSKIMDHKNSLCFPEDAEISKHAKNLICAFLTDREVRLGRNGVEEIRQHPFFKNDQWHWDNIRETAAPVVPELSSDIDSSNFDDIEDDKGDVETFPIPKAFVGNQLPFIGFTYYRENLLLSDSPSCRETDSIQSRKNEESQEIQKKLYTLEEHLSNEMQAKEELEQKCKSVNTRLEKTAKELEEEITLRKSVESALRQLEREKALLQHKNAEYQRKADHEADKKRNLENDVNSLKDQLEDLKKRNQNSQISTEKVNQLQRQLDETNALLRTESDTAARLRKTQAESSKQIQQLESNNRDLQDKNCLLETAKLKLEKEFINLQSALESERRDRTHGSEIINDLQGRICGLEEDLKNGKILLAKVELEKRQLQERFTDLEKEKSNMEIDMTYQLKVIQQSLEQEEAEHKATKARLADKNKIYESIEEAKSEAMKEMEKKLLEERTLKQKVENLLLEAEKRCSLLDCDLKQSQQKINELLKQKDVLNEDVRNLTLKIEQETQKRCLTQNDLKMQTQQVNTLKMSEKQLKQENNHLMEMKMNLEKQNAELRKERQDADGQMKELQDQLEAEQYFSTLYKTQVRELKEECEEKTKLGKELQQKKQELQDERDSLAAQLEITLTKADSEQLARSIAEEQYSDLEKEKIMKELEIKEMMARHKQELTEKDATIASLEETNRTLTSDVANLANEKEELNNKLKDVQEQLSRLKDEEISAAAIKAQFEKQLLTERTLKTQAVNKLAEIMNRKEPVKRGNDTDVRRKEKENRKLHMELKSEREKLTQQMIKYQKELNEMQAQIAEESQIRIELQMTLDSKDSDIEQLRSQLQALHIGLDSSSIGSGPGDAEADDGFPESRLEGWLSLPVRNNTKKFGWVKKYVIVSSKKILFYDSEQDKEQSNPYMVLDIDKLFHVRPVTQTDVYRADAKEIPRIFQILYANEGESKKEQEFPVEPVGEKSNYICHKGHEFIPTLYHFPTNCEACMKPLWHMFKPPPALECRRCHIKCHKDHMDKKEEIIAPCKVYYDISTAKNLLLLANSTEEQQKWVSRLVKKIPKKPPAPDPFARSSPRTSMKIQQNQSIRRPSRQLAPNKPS
row,Structure (SMILES),IC50 [nM]
1,"Cc1sc(N2CCC(F)C2)nc1C(=O)NC1CC2(C1)CC(c1n[nH]c(=O)c3ccccc13)C2 [Example 58, 2-((S)-3-fluoropyrrolidin-1-yl)-5-methyl-N-((aR)-6-(4-oxo-3,4-dihydrophthalazin-1-yl)spiro[3.3]heptan-2-yl)thiazole-4-carboxamide]",2.01 to 5
2,"Cc1sc(N2CCCC2C(F)(F)F)nc1C(=O)NC1CC2(C1)CC(c1n[nH]c(=O)c3ccccc13)C2 [Example 59, 5-methyl-N-((aR)-6-(4-oxo-3,4-dihydrophthalazin-1-yl)spiro[3.3]heptan-2-yl)-2-((S)-2-(trifluoromethyl)pyrrolidin-1-yl)thiazole-4-carboxamide]",5.1 to 15
3,"Cc1sc(N2CCCC2C(F)(F)F)nc1C(=O)NC1CC2(C1)CC(c1n[nH]c(=O)c3ccccc13)C2 [Example 60, 5-methyl-N-((aR)-6-(4-oxo-3,4-dihydrophthalazin-1-yl)spiro[3.3]heptan-2-yl)-2-((R)-2-(trifluoromethyl)pyrrolidin-1-yl)thiazole-4-carboxamide]",15.1 to 100
4,"COc1ccc2c(c1)c(C(=O)NC1CC3(C1)CC(c1n[nH]c(=O)c4ccccc14)C3)nn2CC(C)(C)O [Example 61, 1-(2-hydroxy-2-methylpropyl)-5-methoxy-N-((aR)-6-(4-oxo-3,4-dihydrophthalazin-1-yl)spiro[3.3]heptan-2-yl)-1H-indazole-3-carboxamide]",2.01 to 5
5,"COc1ccc2c(C(=O)NC3CC4(C3)CC(c3n[nH]c(=O)c5ccccc35)C4)nn(CC(C)(C)O)c2c1 [Example 62, 1-(2-hydroxy-2-methylpropyl)-6-methoxy-N-((aR)-6-(4-oxo-3,4-dihydrophthalazin-1-yl)spiro[3.3]heptan-2-yl)-1H-indazole-3-carboxamide]",0.2 to 2
6,"COc1ccc2c(C(=O)NC3CC4(C3)CC(c3n[nH]c(=O)c5ccccc35)C4)cnn2c1 [Example 63, 6-methoxy-N-((aR)-6-(4-oxo-3,4-dihydrophthalazin-1-yl)spiro[3.3]heptan-2-yl)pyrazolo[1,5-a]pyridine-3-carboxamide]",0.2 to 2
7,"COc1ccn2ncc(C(=O)NC3CC4(C3)CC(c3n[nH]c(=O)c5ccccc35)C4)c2c1 [Example 64, 5-methoxy-N-((aR)-6-(4-oxo-3,4-dihydrophthalazin-1-yl)spiro[3.3]heptan-2-yl)pyrazolo[1,5-a]pyridine-3-carboxamide]",5.1 to 15
8,"CC(C)(O)Cn1nc(C(=O)NC2CC3(C2)CC(c2n[nH]c(=O)c4ccccc24)C3)c2cc(F)ccc21 [Example 65, 5-fluoro-1-(2-hydroxy-2-methylpropyl)-N-((aR)-6-(4-oxo-3,4-dihydrophthalazin-1-yl)spiro[3.3]heptan-2-yl)-1H-indazole-3-carboxamide]",2.01 to 5
9,"CC(C)(O)Cn1cc(C(=O)NC2CC3(C2)CC(c2n[nH]c(=O)c4ccccc24)C3)c2cccnc21 [Example 66, 1-(2-hydroxy-2-methylpropyl)-N-((aR)-6-(4-oxo-3,4-dihydrophthalazin-1-yl)spiro[3.3]heptan-2-yl)-1H-pyrrolo[2,3-b]pyridine-3-carboxamide]",5.1 to 15
10,"CC(C)(O)COc1ccc2c(C(=O)NC3CC4(C3)CC(c3n[nH]c(=O)c5ccccc35)C4)cnn2c1 [Example 67, 6-(2-hydroxy-2-methylpropoxy)-N-((aR)-6-(4-oxo-3,4-dihydrophthalazin-1-yl)spiro[3.3]heptan-2-yl)pyrazolo[1,5-a]pyridine-3-carboxamide]",2.01 to 5
11,"O=C(NC1CC2(C1)CC(c1n[nH]c(=O)c3ccccc13)C2)c1cnn2cc(OCCN3CCOCC3)ccc12 [Example 68, 6-(2-morpholinoethoxy)-N-((aR)-6-(4-oxo-3,4-dihydrophthalazin-1-yl)spiro[3.3]heptan-2-yl)pyrazolo[1,5-a]pyridine-3-carboxamide]",2.01 to 5
12,"O=C(NC1CC2(C1)CC(c1n[nH]c(=O)c3ccccc13)C2)c1cnc(N2CCOCC2)s1 [Example 69, 2-morpholino-N-((aR)-6-(4-oxo-3,4-dihydrophthalazin-1-yl)spiro[3.3]heptan-2-yl)thiazole-5-carboxamide]",2.01 to 5
13,"O=C(NC1CC2(C1)CC(c1n[nH]c(=O)c3ccccc13)C2)c1cnc(N2CCCC2)s1 [Example 70, N-((aR)-6-(4-oxo-3,4-dihydrophthalazin-1-yl)spiro[3.3]heptan-2-yl)-2-(pyrrolidin-1-yl)thiazole-5-carboxamide]",2.01 to 5
14,"O=C(NC1CC2(C1)CC(c1n[nH]c(=O)c3ccccc13)C2)c1noc2ccccc12 [Example 71, N-((aR)-6-(4-oxo-3,4-dihydrophthalazin-1-yl)spiro[3.3]heptan-2-yl)benzo[d]isoxazole-3-carboxamide]",5.1 to 15
15,"CC(C)(O)Cn1cc(C(=O)NC2CC3(C2)CC(c2n[nH]c(=O)c4ccccc24)C3)c2ccccc21 [Example 72, 1-(2-hydroxy-2-methylpropyl)-N-((aR)-6-(4-oxo-3,4-dihydrophthalazin-1-yl)spiro[3.3]heptan-2-yl)-1H-indole-3-carboxamide]",0.2 to 2
16,"O=C(NC1CC2(C1)CC(c1n[nH]c(=O)c3ccccc13)C2)c1cnn2ccc(OCCN3CCOCC3)cc12 [Example 73, 5-(2-morpholinoethoxy)-N-((aR)-6-(4-oxo-3,4-dihydrophthalazin-1-yl)spiro[3.3]heptan-2-yl)pyrazolo[1,5-a]pyridine-3-carboxamide]",2.01 to 5
17,"O=C(NC1CC2(C1)CC(c1n[nH]c(=O)c3ccccc13)C2)c1cnn2ccccc12 [Example 74, N-((aR)-6-(4-oxo-3,4-dihydrophthalazin-1-yl)spiro[3.3]heptan-2-yl)pyrazolo[1,5-a]pyridine-3-carboxamide]",2.01 to 5
18,"COCC(O)COc1ccn2ncc(C(=O)NC3CC4(C3)CC(c3n[nH]c(=O)c5ccccc35)C4)c2c1 [Example 75, 5-(2-hydroxy-3-methoxypropoxy)-N-((aR)-6-(4-oxo-3,4-dihydrophthalazin-1-yl)spiro[3.3]heptan-2-yl)pyrazolo[1,5-a]pyridine-3-carboxamide]",15.1 to 100
19,"O=C(NC1CC2(C1)CC(c1n[nH]c(=O)c3ccccc13)C2)c1cnn2cc(N3CCOCC3)ccc12 [Example 76, 6-morpholino-N-((aR)-6-(4-oxo-3,4-dihydrophthalazin-1-yl)spiro[3.3]heptan-2-yl)pyrazolo[1,5-a]pyridine-3-carboxamide]",2.01 to 5
20,"O=C(NC1CC2(C1)CC(c1n[nH]c(=O)c3ccccc13)C2)c1cnn2ccc(OCCO)cc12 [Example 77, 5-(2-hydroxyethoxy)-N-((aR)-6-(4-oxo-3,4-dihydrophthalazin-1-yl)spiro[3.3]heptan-2-yl)pyrazolo[1,5-a]pyridine-3-carboxamide]",15.1 to 100
21,"O=C(NC1CC2(C1)CC(c1n[nH]c(=O)c3ccccc13)C2)c1onc2ccccc12 [Example 78, N-((aR)-6-(4-oxo-3,4-dihydrophthalazin-1-yl)spiro[3.3]heptan-2-yl)benzo[c]isoxazole-3-carboxamide]",5.1 to 15
22,"O=C(NC1CC2(C1)CC(c1n[nH]c(=O)c3ccccc13)C2)c1cnn2cc(OC(F)F)ccc12 [Example 79, 6-(difluoromethoxy)-N-((aR)-6-(4-oxo-3,4-dihydrophthalazin-1-yl)spiro[3.3]heptan-2-yl)pyrazolo[1,5-a]pyridine-3-carboxamide]",2.01 to 5
23,"O=C(NC1CC2(C1)CC(c1n[nH]c(=O)c3ccccc13)C2)c1cnn2cc(OCC(F)F)ccc12 [Example 80, 6-(2,2-difluoroethoxy)-N-((aR)-6-(4-oxo-3,4-dihydrophthalazin-1-yl)spiro[3.3]heptan-2-yl)pyrazolo[1,5-a]pyridine-3-carboxamide]",0.2 to 2
24,"O=C(NC1CC2(C1)CC(c1n[nH]c(=O)c3ccccc13)C2)c1cnn2cc(OCCn3cccn3)ccc12 [Example 81, 6-(2-(1H-pyrazol-1-yl)ethoxy)-N-((aR)-6-(4-oxo-3,4-dihydrophthalazin-1-yl)spiro[3.3]heptan-2-yl)pyrazolo[1,5-a]pyridine-3-carboxamide]",0.2 to 2
25,"O=C(NC1CC2(C1)CC(c1n[nH]c(=O)c3ccccc13)C2)c1cnn2cc(N3CCC(F)(F)CC3)ccc12 [Example 82, 6-(4,4-difluoropiperidin-1-yl)-N-((aR)-6-(4-oxo-3,4-dihydrophthalazin-1-yl)spiro[3.3]heptan-2-yl)pyrazolo[1,5-a]pyridine-3-carboxamide]",2.01 to 5
26,"O=C(NC1CC2(C1)CC(c1n[nH]c(=O)c3ccccc13)C2)c1cnn2cc(OCCN3CCCC3)ccc12 [Example 83, N-((aR)-6-(4-oxo-3,4-dihydrophthalazin-1-yl)spiro[3.3]heptan-2-yl)-6-(2-(pyrrolidin-1-yl)ethoxy)pyrazolo[1,5-a]pyridine-3-carboxamide]",0.2 to 2
27,"O=C(NC1CC2(C1)CC(c1n[nH]c(=O)c3ccccc13)C2)c1cnn2ccc(N3CCOCC3)cc12 [Example 84, 5-morpholino-N-((aR)-6-(4-oxo-3,4-dihydrophthalazin-1-yl)spiro[3.3]heptan-2-yl)pyrazolo[1,5-a]pyridine-3-carboxamide]",5.1 to 15
28,"Cn1cc(-c2ccn3ncc(C(=O)NC4CC5(C4)CC(c4n[nH]c(=O)c6ccccc46)C5)c3c2)cn1 [Example 85, 5-(1-methyl-1H-pyrazol-4-yl)-N-((aR)-6-(4-oxo-3,4-dihydrophthalazin-1-yl)spiro[3.3]heptan-2-yl)pyrazolo[1,5-a]pyridine-3-carboxamide]",2.01 to 5
29,"CN1CCN(c2ccc3c(C(=O)NC4CC5(C4)CC(c4n[nH]c(=O)c6ccccc46)C5)cnn3c2)CC1 [Example 86, 6-(4-methylpiperazin-1-yl)-N-((aR)-6-(4-oxo-3,4-dihydrophthalazin-1-yl)spiro[3.3]heptan-2-yl)pyrazolo[1,5-a]pyridine-3-carboxamide]",0.2 to 2

# Source: US9902702B2, “Spirocycloheptanes as inhibitors of rock” (BRISTOL-MYERS SQUIBB COMPANY, priority 2014, dated 2018)
